Source: patent publication US20090227601A1, “Bradykinin 1 Receptor Antagonists” (Amgen Inc., priority 2005, published 2009)
“And” between values parts separate entries of the source, which are not always exact repeats. Equal values may be shown once.

These molecules were tested against T1, hB2 receptor (Homo sapiens, UniProt P30411) (assay: In vitro Assay of hB2 Receptor Function using Calcium Flux). Details: recombinant CHO cells, antagonist IC50 against agonist at EC80.
T1 construct: host or cells: CHO-K1
T1 sequence (P30411 1-391): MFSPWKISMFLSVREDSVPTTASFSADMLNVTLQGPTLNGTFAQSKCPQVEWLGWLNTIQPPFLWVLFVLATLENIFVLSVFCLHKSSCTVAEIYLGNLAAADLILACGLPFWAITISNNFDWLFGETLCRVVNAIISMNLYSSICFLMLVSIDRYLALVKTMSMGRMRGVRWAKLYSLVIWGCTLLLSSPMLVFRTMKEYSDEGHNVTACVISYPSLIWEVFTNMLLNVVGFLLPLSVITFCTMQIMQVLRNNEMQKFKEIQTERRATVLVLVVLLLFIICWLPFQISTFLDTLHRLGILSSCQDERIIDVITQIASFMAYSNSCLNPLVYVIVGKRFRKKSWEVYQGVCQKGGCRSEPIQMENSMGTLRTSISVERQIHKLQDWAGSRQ
Format: cell-based
Experimental: In vitro Assay of hB2 Receptor Function using Calcium Flux The intracellular calcium flux induced by hB2 receptor activation was analyzed using an hB2 recombinant cell line (CHO-K1) purchased from PerkinElmer (Catalog Number: RBHB2C000EA) on a fluorometric imaging plate reader (FLIPR). […] Culture medium was changed every other day. 24 h prior to the FLIPR assay, the hB2/CHO cells were washed once with PBS (Invitrogen) and 10 mL of Versene (1:5000, Invitrogen, Cat# 15040-066) was added to each flask. After 5 min incubation at 37° C., Versene was removed and cells were detached from the flask and resuspended in culture medium. Cells were counted and 25,000 cells/well were plated in 96-well black-sided clear bottom assay plates (Costar #3904). Cells were incubated in a 37° C. CO2 incubator overnight. The media was aspirated from the cells and replaced with 65 μL of dye-loading buffer. The loading buffer was prepared by diluting a stock solution of 0.5 mM Fluo-4 AM (Molecular Probes, dissolved in DMSO containing 10% [w/v] pluronic acid) to a concentration of 1 μM in Clear Dulbecco's Modified Eagle Medium (DMEM) containing 0.1% BSA, 20 mM HEPES, and 2.5 mM probenecid. The cells were dye-loaded for 1 h at RT. The excess dye was removed by washing the cells 2× with assay buffer. The assay buffer consists of Hank's Balanced Salt Solution (HBSS) containing 20 mM HEPES, 0.1% BSA, and 2.5 mM probenecid. After the wash cycles, a volume of 100 μL was left in each well, and the plate was ready to be assayed in the FLIPR System. […] The cell plate and the compound plates were loaded onto the FLIPR and during the assay, fluorescence readings are taken simultaneously from all 96 wells of the cell plate. Ten 1-second readings were taken to establish a stable baseline for each well, then 25 μL from the B1 antagonist plate was rapidly (50 μL/sec.) added. The fluorescence signal was measured in 1-second (1 min) followed by 6-second (2 min) intervals for a total of 3 min to determine if there is any agonist activity with the compounds.

IC50 | Molecule
1000 nM | Cc1ccc(S(=O)(=O)N2C=CNC(=O)[C@H]2CC(=O)N2CCCC2c2ccc(Cl)cc2)cc1 (stereo partly drawn) [T-3-3, (3R)-3-(2-(2-(4-chlorophenyl)-1-pyrrolidinyl)-2-oxoethyl)-4-((4-methylphenyl)-sulfonyl)-3,4-dihydro-2(1H)-pyrazinone]
21 nM | Cc1ccc(S(=O)(=O)N2C=CNC(=O)[C@H]2CC(=O)NC2CCN(c3ccccc3)CC2)cc1 [T-1-3, 2-((2R)-1-((4-methylphenyl)sulfonyl)-3-oxo-1,2,3,4-tetrahydro-2-pyrazinyl)-N-(1-phenyl-4-piperidinyl)acetamide]
1.4 nM | Cc1ccc(S(=O)(=O)N2C=CNC(=O)[C@H]2CC(=O)NC2CCC3(CC2(C)C)OCCO3)cc1 (mixture of isomers) [T-1-111, N-((8RS)-7,7-dimethyl-1,4-dioxaspiro[4.5]dec-8-yl)-2-((2R)-1-((4-methylphenyl)-sulfonyl)-3-oxo-1,2,3,4-tetrahydro-2-pyrazinyl)acetamide]
270 nM | Cc1cc(S(=O)(=O)N2C=CNC(=O)[C@H]2CC(=O)N2CCC(N3CCCCC3)CC2)c(C)cc1Cl [T-3-8, (3R)-3-(2-(1,4′-bipiperidin-1′-yl)-2-oxoethyl)-4-((4-chloro-2,5-dimethylphenyl)-sulfonyl)-3,4-dihydro-2(1H)-pyrazinone]
2200 nM | Cc1ccc(S(=O)(=O)N2C=CNC(=O)[C@H]2CC(=O)NC2CC(=O)OC(C)(C)C2)cc1 (mixture of isomers) [T-1-67, N-((4RS)-2,2-dimethyl-6-oxotetrahydro-2H-pyran-4-yl)-2-((2R)-1-((4-methylphenyl)sulfonyl)-3-oxo-1,2,3,4-tetrahydro-2-pyrazinyl)acetamide]
150 nM and 430 nM | Cc1ccc(S(=O)(=O)N2C=CNC(=O)[C@H]2CC(=O)NC2CCN(C(=O)OC(C)(C)C)CC2(C)C)cc1 (mixture of isomers) [T-1-15, 1,1-dimethylethyl (4R)-3,3-dimethyl-4-((((2R)-1-((4-methylphenyl)sulfonyl)-3-oxo-1,2,3,4-tetrahydro-2-pyrazinyl)acetyl)amino)-1-piperidinecarboxylate; and 1,1-dimethylethyl (4S)-3,3-dimethyl-4-((((2R)-1-((4-methylphenyl)sulfonyl)-3-oxo-1,2,3,4-tetrahydro-2-pyrazinyl)acetyl)amino)-1-piperidinecarboxylate]
0.8 nM | 2-((2R)-1-((2,3-dichlorophenyl)sulfonyl)-3-oxo-1,2,3,4-tetrahydro-2-pyrazinyl)-N-((4S)-3,3-dimethyl-4-piperidinyl)acetamide; and 2-((2R)-1-((2,3-dichlorophenyl)sulfonyl)-3-oxo-1,2,3,4-tetrahydro-2-pyrazinyl)-N-((4R)-3,3-dimethyl-4-piperidinyl)acetamide [T-1-47]
15 nM | CC(=O)N1CCC(NC(=O)C[C@@H]2C(=O)NC=CN2S(=O)(=O)c2ccc(C)cc2)C(C)(C)C1 (stereo partly drawn) [T-1-18, N-(1-acetyl-3,3-dimethyl-4-piperidinyl)-2-((2R)-1-((4-methylphenyl)sulfonyl)-3-oxo-1,2,3,4-tetrahydro-2-pyrazinyl)acetamide]
2 nM | Cc1ccc(S(=O)(=O)N2C=CNC(=O)[C@H]2CC(=O)NC2CCC(N3CCCC(F)C3)CC2(C)C)cc1 (stereo partly drawn) [T-1-41, N-(4-(3-fluoro-1-piperidinyl)-2,2-dimethylcyclohexyl)-2-((2R)-1-((4-methyl-phenyl)sulfonyl)-3-oxo-1,2,3,4-tetrahydro-2-pyrazinyl)acetamide]
190 nM | CO[C@H]1CC[C@H](NC(=O)C[C@@H]2C(=O)NC=CN2S(=O)(=O)c2ccc(C)cc2)CC1 [T-1-30, N-(trans-4-(methyloxy)cyclohexyl)-2-((2R)-1-((4-methylphenyl)sulfonyl)-3-oxo-1,2,3,4-tetrahydro-2-pyrazinyl)acetamide]
130 nM | COc1ccc(C2CN(C(=O)C[C@@H]3C(=O)NC=CN3S(=O)(=O)c3ccc(C)cc3)CCS2)cc1 (stereo partly drawn) [T-3-2, (3R)-3-(2-(2-(4-(methyloxy)phenyl)-4-thiomorpholinyl)-2-oxoethyl)-4-((4-methyl-phenyl)sulfonyl)-3,4-dihydro-2(1H)-pyrazinone]
5.1 nM | Cc1cc(S(=O)(=O)N2C=CNC(=O)[C@H]2CC(=O)N2CCC3(CCN(C4CC4)C3)C2)c(C)cc1Cl (stereo partly drawn) [T-3-38, (3R)-4-((4-chloro-2,5-dimethylphenyl)sulfonyl)-3-(2-(7-cyclopropyl-2,7-diazaspiro[4.4]non-2-yl)-2-oxoethyl)-3,4-dihydro-2(1H)-pyrazinone]
20 nM | Cc1ccc(S(=O)(=O)N2C=CNC(=O)[C@H]2CC(=O)NC2CC(C)(C)N(C)C(C)(C)C2)cc1 [T-1-77, 2-((2R)-1-((4-methylphenyl)sulfonyl)-3-oxo-1,2,3,4-tetrahydro-2-pyrazinyl)-N-(1,2,2,6,6-pentamethyl-4-piperidinyl)acetamide]
1980 nM | Cc1ccc(S(=O)(=O)N2C=CNC(=O)[C@H]2CC(=O)NC2CCC(N3CCC(F)CC3)CC2(C)C)cc1 (mixture of isomers) [T-1-42]
1 nM | N-((4S)-1-cyclopropyl-3,3-dimethyl-4-piperidinyl)-2-((2R)-1-((4-methylphenyl)-sulfonyl)-3-oxo-1,2,3,4-tetrahydro-2-pyrazinyl)acetamide; and N-((4R)-1-cyclopropyl-3,3-dimethyl-4-piperidinyl)-2-((2R)-1-((4-methylphenyl)-sulfonyl)-3-oxo-1,2,3,4-tetrahydro-2-pyrazinyl)acetamide [T-1-45]
> 4000 nM | Cc1ccc(S(=O)(=O)N2C=CNC(=O)[C@H]2CC(=O)N2CCC(NC(=O)c3ccccc3)CC2)cc1 [T-3-40, N-(1-(2-((2R)-1-((4-methylphenyl)sulfonyl)-3-oxo-1,2,3,4-tetrahydro-2-pyrazinyl)acetyl)-4-piperidinyl)benzamide]
47 nM | Cc1ccc(S(=O)(=O)N2C=CNC(=O)[C@H]2CC(=O)N[C@H]2CC[C@@H](N)CC2)cc1 [T-1-31, N-(cis-4-aminocyclohexyl)-2-((2R)-1-((4-methylphenyl)sulfonyl)-3-oxo-1,2,3,4-tetrahydro-2-pyrazinyl)acetamide]
92 nM | 2-((2R)-1-((4-methylphenyl)sulfonyl)-3-oxo-1,2,3,4-tetrahydro-2-pyrazinyl)-N-((1R,2R,4R)-1,7,7-trimethylbicyclo[2.2.1]hept-2-yl)acetamide; and 2-((2R)-1-((4-methylphenyl)sulfonyl)-3-oxo-1,2,3,4-tetrahydro-2-pyrazinyl)-N-((1R,2S,4R)-1,7,7-trimethylbicyclo[2.2.1]hept-2-yl)acetamide [T-1-2]
420 nM | Cc1ccc(S(=O)(=O)N2C=CNC(=O)[C@H]2CC(=O)N[C@H]2CC[C@@H](NC(C)C)CC2)cc1 [T-1-35, N-(cis-4-((1-methylethyl)amino)cyclohexyl)-2-((2R)-1-((4-methylphenyl)sulfonyl)-3-oxo-1,2,3,4-tetrahydro-2-pyrazinyl)acetamide]
170 nM | 1,1-dimethylethyl (3R)-3-((((2R)-1-((4-methylphenyl)sulfonyl)-3-oxo-1,2,3,4-tetrahydro-2-pyrazinyl)acetyl)amino)-1-piperidinecarboxylate; and 1,1-dimethylethyl (3S)-3-((((2R)-1-((4-methylphenyl)sulfonyl)-3-oxo-1,2,3,4-tetrahydro-2-pyrazinyl)acetyl)amino)-1-piperidinecarboxylate [T-1-8]
19 nM | N-((1R)-2,2-dimethyl-4-oxocyclohexyl)-2-((2R)-1-((4-methylphenyl)sulfonyl)-3-oxo-1,2,3,4-tetrahydro-2-pyrazinyl)acetamide; and N-((1S)-2,2-dimethyl-4-oxocyclohexyl)-2-((2R)-1-((4-methylphenyl)sulfonyl)-3-oxo-1,2,3,4-tetrahydro-2-pyrazinyl)acetamide [T-1-37]

Molecule | IC50
Cc1ccc(S(=O)(=O)N2C=CNC(=O)[C@H]2CC(=O)NC2CCC(N3CCCC3)CC2(C)C)cc1 (mixture of isomers) [T-1-50] | 1.3 nM
Cc1ccc(S(=O)(=O)N2C=CNC(=O)[C@H]2CC(=O)NC2CCC(NC3CC3)CC2(C)C)cc1 (mixture of isomers) [T-1-43] | 14 nM
